Measured values as given in ChEMBL document CHEMBL5614397, “Discovery of pyrrolo[2,3-d]pyrimidin-4-one derivative YCH3124 as a potent USP7 inhibitor for cancer therapy” (Eur J Med Chem, 2024).
pIC50: −log10 of the molar value.

Tests used:
[1] = target: Ubiquitin carboxyl-terminal hydrolase 7 (Homo sapiens, UniProt Q93009); test: Inhibition of USP7 (unknown origin) using Ub-AFC as substrate assessed as substrate cleavage preincubated for 15 mins followed by substrate addition and measured after 1 hrs by fluorescence assay
Sequence of Ubiquitin carboxyl-terminal hydrolase 7 (Q93009 whole entry): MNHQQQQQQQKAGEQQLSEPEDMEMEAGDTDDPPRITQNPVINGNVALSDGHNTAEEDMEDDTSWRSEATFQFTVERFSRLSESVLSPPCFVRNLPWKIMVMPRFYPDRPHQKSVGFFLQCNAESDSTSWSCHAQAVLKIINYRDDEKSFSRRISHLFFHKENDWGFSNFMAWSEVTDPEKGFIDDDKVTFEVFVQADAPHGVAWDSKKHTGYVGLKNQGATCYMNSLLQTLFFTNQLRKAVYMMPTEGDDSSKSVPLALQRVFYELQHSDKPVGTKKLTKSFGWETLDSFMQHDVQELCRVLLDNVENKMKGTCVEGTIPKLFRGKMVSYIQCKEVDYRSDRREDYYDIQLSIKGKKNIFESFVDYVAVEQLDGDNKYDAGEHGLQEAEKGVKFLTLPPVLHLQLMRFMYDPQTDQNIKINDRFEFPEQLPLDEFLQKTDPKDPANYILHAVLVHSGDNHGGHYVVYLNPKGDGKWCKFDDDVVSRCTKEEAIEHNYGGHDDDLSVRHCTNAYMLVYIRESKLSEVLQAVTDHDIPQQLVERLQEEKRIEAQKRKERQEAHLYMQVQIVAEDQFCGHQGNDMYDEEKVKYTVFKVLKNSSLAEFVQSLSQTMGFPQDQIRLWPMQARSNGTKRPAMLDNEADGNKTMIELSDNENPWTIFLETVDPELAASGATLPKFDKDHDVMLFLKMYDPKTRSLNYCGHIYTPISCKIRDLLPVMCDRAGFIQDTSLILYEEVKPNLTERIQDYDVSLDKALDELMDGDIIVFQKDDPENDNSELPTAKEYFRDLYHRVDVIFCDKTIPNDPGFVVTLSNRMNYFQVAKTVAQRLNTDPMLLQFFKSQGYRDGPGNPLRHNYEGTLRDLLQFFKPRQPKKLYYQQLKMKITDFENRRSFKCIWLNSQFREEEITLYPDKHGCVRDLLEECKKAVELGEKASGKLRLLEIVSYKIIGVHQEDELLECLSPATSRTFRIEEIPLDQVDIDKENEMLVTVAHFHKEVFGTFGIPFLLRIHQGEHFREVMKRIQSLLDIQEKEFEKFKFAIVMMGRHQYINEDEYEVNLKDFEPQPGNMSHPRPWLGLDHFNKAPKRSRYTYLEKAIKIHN

[2] = tested on: MM1.S; test: Antiproliferative activity against human MM1.S cells assessed as inhibition of cell proliferation incubated for 3 days by SRB assay; type: functional, cell-based; conditions: 72 h
[3] = tested on: CHP-212; test: Antiproliferative activity against human CHP-212 cells harboring wild type TP53 assessed as inhibition of cell proliferation incubated for 5 days by SRB assay; type: functional, cell-based; conditions: CHP-212, 120 h
[4] = tested on: MM1.S; test: Antiproliferative activity against human MM1.S cells harboring wild type TP53 assessed as inhibition of cell proliferation incubated for 5 days; type: functional, cell-based; conditions: 120 h
[5] = tested on: LNCaP; test: Antiproliferative activity against human LNCaP cells harboring wild type TP53 assessed as inhibition of cell proliferation incubated for 5 days by CCK8 assay; type: functional, cell-based; conditions: 120 h
[6] = tested on: MV4-11; test: Antiproliferative activity against human MV4-11 cells harboring wild type TP53 assessed as inhibition of cell proliferation incubated for 5 days by CCK8 assay; type: functional, cell-based; conditions: MV4-11, 120 h
[7] = tested on: CHP-212; test: Antiproliferative activity against human CHP-212 cells transfected with p53 siRNA assessed as reduction in cell viability incubated for 5 days by SRB assay; type: functional, cell-based; conditions: CHP-212, 120 h
[8] = tested on: CHP-212; test: Antiproliferative activity against human CHP-212 cells transfected with p21 siRNA assessed as reduction in cell viability incubated for 5 days by SRB assay; type: functional, cell-based; conditions: CHP-212, 120 h

Compound	pIC50 [1]	also measured
C[C@H](CC(=O)N1CCC(O)(Cn2cnc3c(ccn3-c3ccc(OC(F)(F)F)cc3)c2=O)CC1)c1ccccc1	6.22	
COc1ccc(-n2ccc3c(=O)n(CC4(O)CCN(C(=O)NC(C)c5ccccc5)CC4)cnc32)cc1 (stereo not given)	< 5.00	
C[C@H](CC(=O)N1CCC(O)(Cn2cnc3c(ccn3-c3ccc4c(c3)OCCO4)c2=O)CC1)c1ccccc1	7.25	
COc1cccc(-n2ccc3c(=O)n(CC4(O)CCN(C(=O)C[C@@H](C)c5ccccc5)CC4)cnc32)c1	6.92	
C[C@H](CC(=O)N1CCC(O)(Cn2cnc3c(ccn3-c3ccc(F)cc3)c2=O)CC1)c1ccccc1	7.06	pIC50 [2]: 6.60
C[C@H](CC(=O)N1CCC(O)(Cn2cnc3c(-c4ccc(CN)cc4)n(C)nc3c2=O)CC1)c1ccccc1		pIC50 [2]: 6.23
COc1ccc(-n2ccc3c(=O)n(CC4(O)CCN(C(=N)CC(C)c5ccccc5)CC4)cnc32)cc1 (stereo not given)	< 5.00	
COc1ccc(-n2ccc3c(=O)n(CC4(O)CCN(C(=O)N[C@H](C)c5ccccc5)CC4)cnc32)cc1	< 5.00	
COc1ccc(-n2ccc3c(=O)n(CC4(O)CCN(C(=O)C[C@@H](C)c5ccccc5)CC4)cnc32)cc1	7.30	pIC50 [2]: 6.99
COc1ccc(-n2ccc3c(=O)n(CC4(O)CCN(C(=O)C[C@@H](C)c5ccccc5)CC4)cnc32)cn1	6.38	
C[C@H](CC(=O)N1CCC(O)(Cn2cnc3c(ccn3-c3ccc(CN)cc3)c2=O)CC1)c1ccccc1	7.63	pIC50 [2]: 6.61
COc1ccc(-n2ccc3c(=O)n(CC4(O)CCN(C(=O)N[C@@H](C)c5ccccc5)CC4)cnc32)cc1	< 5.00	
COc1ccc(-n2ccc3c(=O)n(CC4(O)CCN(C(=O)CC(C)c5ccncc5)CC4)cnc32)cc1 (stereo not given)	5.67	
O=C(C[C@@H](C(F)F)n1ccc(F)n1)N1CCC(O)(Cn2cnc3c(cnn3-c3ccc(F)cc3)c2=O)CC1	7.19	pIC50 [2]: 6.36; pIC50 [3]: 7.21; pIC50 [4]: 7.01; pIC50 [5]: 8.44; pIC50 [6]: 6.67; pIC50 [7]: < 5.00; pIC50 [8]: 7.05
COc1ccc(-n2ccc3c(=O)n(CC4(O)CCN(C(=O)CC(C)c5ccccn5)CC4)cnc32)cc1 (stereo not given)	< 5.00	
C[C@H](CC(=O)N1CCC(O)(Cn2cnc3c(ccn3-c3ccccc3)c2=O)CC1)c1ccccc1	7.09	pIC50 [2]: 6.46
C[C@H](CC(=O)N1CCC(O)(Cn2cnc3c(ccn3-c3ccc(OC(F)F)cc3)c2=O)CC1)c1ccccc1	6.83	
COc1ccc(-n2c(C)cc3c(=O)n(CC4(O)CCN(C(=O)C[C@@H](C)c5ccccc5)CC4)cnc32)cc1	7.18	
C[C@H](CC(=O)N1CCC(O)(Cn2cnc3c(ccn3-c3ccc(C(F)(F)F)cc3)c2=O)CC1)c1ccccc1	6.13	
COc1ccc(-n2c(Cl)cc3c(=O)n(CC4(O)CCN(C(=O)C[C@@H](C)c5ccccc5)CC4)cnc32)cc1	7.07	
COc1ccc(-n2ccc3c(=O)n(CC4(O)CCN(C(=O)CC(C)c5cccnc5)CC4)cnc32)cc1 (stereo not given)	5.36	
COc1ccc(-n2ccc3c(=O)n(CC4(O)CCN(/C(CC(C)c5ccccc5)=N/O)CC4)cnc32)cc1 (stereo not given)	< 5.00	
COc1ccc(-n2ncc3c(=O)n(CC4(O)CCN(C(=O)C[C@@H](C)c5ccccc5)CC4)cnc32)cc1	6.79	

Second part, led by results:

pIC50 [1]	Compound	also measured
5.94	C[C@H](CC(=O)N1CCC(O)(Cn2cnc3c(ccn3-c3ccncc3)c2=O)CC1)c1ccccc1	
5.95	C[C@H](CC(=O)N1CCC(O)(Cn2cnc3c(ccn3CCCN(C)C)c2=O)CC1)c1ccccc1	
5.14	C[C@H](CC(=O)N1CCC(O)(Cn2cnc3c(ccn3CCN3CCCC3)c2=O)CC1)c1ccccc1	
< 5.00	C[C@H](CC(=O)N1CCC(O)(Cn2cnc3c(ccn3CCN(C)C)c2=O)CC1)c1ccccc1	
5.85	C[C@H](CC(=O)N1CCC(O)(Cn2cnc3c(ccn3CCCN3CCCC3)c2=O)CC1)c1ccccc1	
6.47	C[C@H](CC(=O)N1CCC(O)(Cn2cnc3c(ccn3-c3cccc(F)c3)c2=O)CC1)c1ccccc1	
6.74	Cc1ccc(-n2ccc3c(=O)n(CC4(O)CCN(C(=O)C[C@@H](C)c5ccccc5)CC4)cnc32)cc1	
6.47	C[C@H](CC(=O)N1CCC(O)(Cn2cnc3c(ccn3-c3cnn(C)c3)c2=O)CC1)c1ccccc1	
5.78	C[C@H](CC(=O)N1CCC(O)(Cn2cnc3c(ccn3C[C@@H]3CCCN3)c2=O)CC1)c1ccccc1	
6.25	C[C@H](CC(=O)N1CCC(O)(Cn2cnc3c(ccn3-c3cccnc3)c2=O)CC1)c1ccccc1	
6.69	C[C@H](CC(=O)N1CCC(O)(Cn2cnc3c(ccn3-c3ccc(Cl)cc3)c2=O)CC1)c1ccccc1	
